Experiments:
[1] = Chemical hydrolysis in PBS, pH 7.3; assay type: physicochemical; conditions: for t1/2(1) PBS, pH=7.3: removal of first masking unit (half-lives of 3); for t1/2(1) PBS, pH=7.3 / t1/2(2) PBS, pH=7.3: PBS pH 7.3, 37 °C; for t1/2(2) PBS, pH=7.3: second hydrolysis step, half-lives of intermediate 4 to give d4TTP 19
Procedure: Stock solutions (50 mM in DMSO-d6) of the appropriate compounds were prepared. After dilution of 11 μl with 100 μl Millipore water and 189 μl DMSO-d6 to 1.9 mM hydrolysis solutions the reaction was started by the addition of 300 μl PBS (50 mM, pH 7.3). The solution was incubated at 37 °C in a thermomixer. An initial aliquot (25 μl) was taken directly and analysed by analytical HPLC at 265–266 nm. Further aliquots were taken for monitoring the kinetic hydrolysis. The exponential decay curves (pseudo-first order) based on absolute integral values were calculated with commercially available software (OriginPro 9.0G) and yielded the half-lives t1/2(1) and t1/2(2) of the prodrugs via one determination.

pig liver esterase (PLE) = test: Enzymatic hydrolysis with pig liver esterase (PLE) in PBS; assay type: in vitro ADME; conditions: PLE in PBS pH 7.3, 37 °C; for t1/2(1) PLE: removal of first masking unit (half-lives of 3); for t1/2(2) PLE: second hydrolysis step, half-lives of intermediate 4
Procedure: Furthermore, 140 μl of the 6.0 mM solution was diluted with 105 μl DMSO-d6 and 700 μl 50 mM PBS buffer. The reaction was started by addition of 52.5 μl of PLE in PBS buffer (3 mg ml^−1) and the mixture was incubated at 37 °C in a thermomixer. At different times, aliquots (125 μl) were taken and treated as follows: (a) for 3a–g,l,m and 4a,e the reaction was stopped by addition to 132.5 μl MeOH. […] (b) For 3h,i,k,n and 4j, the sample was directly frozen in liquid nitrogen.

HIV-1(IIIB) = test: Anti-HIV activity assay, HIV-1 in wild-type CEM/0 cells; assay type: cell-based; conditions: HIV-induced giant cell formation, mean±s.d., n=2–3
Procedure: (§1) Inhibition of HIV-1(IIIB)- and HIV-2(ROD)-induced cytopathicity in wild-type CEM/0 and TK-deficient CEM/TK^− cell cultures was measured in microtitre 96-well plates containing ∼3 × 10^5 CEM cells ml^−1 infected with 100 CCID50 of HIV per millilitre and containing appropriate dilutions of the test compounds. After 4−5 days of incubation at 37 °C in a CO2-controlled humidified atmosphere, CEM giant (syncytium) cell formation was examined microscopically. The EC50 (50% effective concentration) was defined as the compound concentration required to inhibit HIV-induced giant cell formation by 50%.

HIV-2(ROD) [2] = test: Anti-HIV activity assay, HIV-2 in wild-type CEM/0 cells; assay type: cell-based; conditions: read-out: EC50 CEM HIV-2
Procedure: as §1

HIV-2(ROD) [3] = test: Anti-HIV activity assay, HIV-2 in TK-deficient CEM/TK− cells; assay type: cell-based; conditions: thymidine kinase-deficient CEM/TK− cells, mean±s.d., n=2–3
Procedure: as §1

CD4+ T-cell (CEM) = test: Cytotoxicity: inhibition of CEM cell proliferation; assay type: cell-based, human; conditions: 50% cytostatic concentration, mean±s.d., n=2–3
HIV RT = target: T1, HIV RT (Human immunodeficiency virus type 1 group M subtype B, UniProt P03366); test: Primer extension assay with HIV reverse transcriptase using PLE hydrolysate; assay type: biochemical; conditions: hydrolysate after complete consumption of prodrug and intermediate; 2.5 μM, 37 °C, 10 min
T1 construct: Primer extension assays with HIV reverse transcriptase; purchased Roboklon
Procedure: To confirm the prodrug concept and thus the direct successful release of the biologically active triphosphate metabolite, the prodrug 3e was exposed to PLE and the hydrolysis monitored with RP-18-HPLC. After complete consumption of 3e as well as its intermediate 4e the solvents were removed. For the template/primer extension assay (Fig. 4a), HIV RT was incubated with the PLE hydrolysate as such (T*) or with the PLE hydrolysate in the additional presence of dCTP (T*, C), or dCTP+dGTP (T*, C, G) or all natural 2′-deoxynucleotides (N*). […] In addition, TriPPPro-TTP 3r was synthesized (Fig. 5) and also investigated in the same way. […] The primer could be fully extended till 30 nt when T* was added in the presence of dCTP and dGTP, as also the N* and N samples could.
The used polymerase HIV RT was obtained from Roboklon. The primer and template were purchased from Life Technologies.
The primer extension assays were performed under the following conditions:
The primer was labelled using [γ^32P]-ATP according to standard techniques. After 5-min incubation at 95 °C in 20 mM Tris-HCl (pH 7.6) and 50 mM NaCl, the hybridization/annealing of the primer to the template strand was achieved by a cooling phase from 95 to 20 °C over 3 h. […]

[4] = Enzyme-catalysed hydrolysis in CEM cell extracts; conditions: human CEM cell extract, 37 °C
Procedure: The hydrolysis mixtures were analysed by means of analytical RP-18-HPLC.
A volume of 10 μl of the appropriate 50 mM DMSO-d6 stock solution was diluted to 6.0 mM hydrolysis solution by addition of 73.3 μl DMSO-d6. Seven different samples including 10 μl water and 10 μl hydrolysis solution were prepared. The reaction was started by addition of 50 μl human CEM cell extract and the mixture was incubated at 37 °C for different time periods of hydrolysis. The work-up depended on the particular compound: (a) for 3a–f,l,m,p and 4a,e the reactions were stopped by addition of 150 μl MeOH. The solution was kept on ice for 5 min followed by centrifugation for 5 min (13,000 r.p.m.). The supernatants were filtered (Chromafil RC-20/15 MS, 0.2 μm) and stored in liquid nitrogen. (b) For 3g–i,k,n and 4j, the samples were directly frozen in liquid nitrogen. The solution was defrosted followed by ultrasonication for 10 min. After centrifugation for 5 min the supernatants were filtered (Chromafil AO-20/3, 0.2 μm) and stored at −196 °C. (c) For 3j the mixture was diluted with 70 μl THF (HPLC grade) and frozen in liquid nitrogen followed by defrosting, ultrasonication, centrifugation, filtration and stored as described for (b). Samples were defrosted and 50–80 μl were subjected to HPLC analysis.
Human CD4^+ T-lymphocyte CEM cells were grown in RPMI-1640-based cell culture medium to a final density of ∼3·10^6 cells ml^−1. Then, cells were centrifuged for 10 min at 1,250 r.p.m. at 4 °C, washed twice with cold PBS and the pellet was resuspended at 10^8 cells ml^−1 and sonicated (Hielscher Ultrasound Techn., 100% amplitude, three·times for 10 s) to destroy cell integrity. The resulting cell suspension was then centrifuged at 10,000 r.p.m. to remove cell debris, and the supernatant divided into aliquots before being frozen at −80 °C and used.

[5] = Cytotoxicity: inhibition of CEM cell proliferation; assay type: cell-based, human; conditions: human, CEM cells (CD4+ T-cells), 50% cytostatic concentration, mean±s.d., n=2–3
[6] = wild-type CEM cells, HIV-induced giant cell formation, mean±s.d., n=2–3

| SMILES | t1/2(1) PBS, pH=7.3 [1] [h] | t1/2(2) PBS, pH=7.3 [1] [h] | t1/2(1) PLE (pig liver esterase (PLE)) [h] | t1/2(2) PLE (pig liver esterase (PLE)) [h] | EC50 (HIV-1(IIIB)) [nM] | EC50 (HIV-2(ROD) [2]; [6]) [nM] | EC50 (HIV-2(ROD) [3]) [nM] | CC50 (CD4+ T-cell (CEM)) [nM] | primer extension by HIV RT with PLE hydrolysate of the prodrug (HIV RT) | t1/2(1) CEM [4] [h] | time in which amount of thymine doubles (cleavage of the glycosidic bond) ([1]; long chemical hydrolysis time periods) [h] | EC50 (HIV-1(IIIB); Human immunodeficiency virus 1, IIIB, CCRF-CEM) [nM] | EC50 (HIV-2(ROD) [2]; Human immunodeficiency virus 2, CCRF-CEM) [nM] | EC50 (HIV-2(ROD) [3]; Human immunodeficiency virus 2) [nM] | CC50 [5] [nM] |
| --- | --- | --- | --- | --- | --- | --- | --- | --- | --- | --- | --- | --- | --- | --- | --- |
| CCCCCCCCC(=O)Oc1ccc(COP(=O)(OCc2ccc(OC(=O)CCCCCCCC)cc2)OP(=O)(O)OP(=O)(O)OC[C@@H]2C=C[C@H](n3cc(C)c(=O)[nH]c3=O)O2)cc1 [3e, γ-Bis-(4-nonanoyloxybenzyl)-d4TTP] | 52 | 390 | 0.013 | 1.6 | 310 ± 10 | 620 ± 300 | 2260 ± 1030 | 52000 ± 1000 | immediate DNA chain termination | 2.5 |  |  |  |  |  |
| CCCCCCCCCCCCCCCCCC(=O)Oc1ccc(COP(=O)(OCc2ccc(OC(=O)CCCCCCCCCCCCCCCCC)cc2)OP(=O)(O)OP(=O)(O)OC[C@@H]2C=C[C@H](n3cc(C)c(=O)[nH]c3=O)O2)cc1 [3j, γ-Bis-(4-octadecanoyloxybenzyl)-d4TTP] | 50 | 583 | 37 |  | 170 | 310 | 280 ± 40 | 29000 ± 9000 |  | 13 |  |  |  |  |  |
| CCCCCCCC/C=C\CCCCCCCC(=O)Oc1ccc(COP(=O)(OCc2ccc(OC(=O)CCCCCCC/C=C\CCCCCCCC)cc2)OP(=O)(O)OP(=O)(O)OC[C@@H]2C=C[C@H](n3cc(C)c(=O)[nH]c3=O)O2)cc1 [3k, γ-Bis(4-(Z)-octadec-9-enoyloxybenzyl)-d4TTP] | 27 | 92 | 42 |  | 300 ± 10 | 470 ± 100 | 930 ± 470 | 25000 ± 1000 |  | 4.3 |  |  |  |  |  |
| COC(=O)Oc1ccc(COP(=O)(OCc2ccc(OC(=O)OC)cc2)OP(=O)(O)OP(=O)(O)OC[C@@H]2C=C[C@H](n3cc(C)c(=O)[nH]c3=O)O2)cc1 [3l, γ-Bis-(4-methyloxycarbonyloxybenzyl)-d4TTP] | 24 | 200 | 3.8 | 177 | 400 | 920 ± 120 | > 10000 | 16000 ± 1000 |  | 0.97 |  |  |  |  |  |
| CCCCCCCCOC(=O)Oc1ccc(COP(=O)(OCc2ccc(OC(=O)OCCCCCCCC)cc2)OP(=O)(O)OP(=O)(O)OC[C@@H]2C=C[C@H](n3cc(C)c(=O)[nH]c3=O)O2)cc1 [3m, γ-Bis-(4-octyloxycarbonyloxybenzyl)-d4TTP] | 82 | 590 | 0.12 | 17 | 360 ± 60 | 470 ± 100 | 1260 | 51000 ± 5000 |  | 2.6 |  |  |  |  |  |
| CCCCCCCCCCCCOC(=O)Oc1ccc(COP(=O)(OCc2ccc(OC(=O)OCCCCCCCCCCCC)cc2)OP(=O)(O)OP(=O)(O)OC[C@@H]2C=C[C@H](n3cc(C)c(=O)[nH]c3=O)O2)cc1 [3n, γ-Bis-(4-dodecyloxycarbonyloxybenzyl)-d4TTP] | 99 | 631 | 44 |  | 500 ± 140 | 690 ± 210 | 1260 | 41000 ± 12000 |  | 3.0 |  |  |  |  |  |
| Cc1cn([C@H]2C=C[C@@H](CO)O2)c(=O)[nH]c1=O [d4T, 3′-deoxy-2′,3′-didehydrothymidine, reference compound] |  |  |  |  |  |  |  |  |  |  | 63 | 330 ± 110 | 890 | 150000 ± 9000 | 79000 ± 3000 |

— paper PMC4640093, “Lipophilic prodrugs of nucleoside triphosphates as biochemical probes and potential antivirals” (Nature Communications, 2015)
